From patent US20020137929A1, “1 - (3-heterocyclylphenyl) isothiourea, -isourea, -guanidine and -amidine herbicidal agents” (Intellectual Property Department, BASF Aktiengesellschaft, priority 1998, published 2002)

What was measured:
CYPIR (Rice Flatsedge) = test: Preemergence weed control under flooded paddy conditions; format: in vivo, Cyperus iria; settings: rated 3-4 weeks after treatment
Procedure, shortened: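 Silt loam, seeds in top 0.5 cm; flood held 1.5-3 cm; test cpd as acetone/water 50/50 into flood water, ~0.0313-0.500 kg/ha a.i.; greenhouse 3-4 wk; visual 0-9 score vs control.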

GALAP (Galium) = test: Preemergence herbicidal evaluation; format: in vivo, Galium aparine; settings: rated 4-5 weeks after treatment
Procedure, shortened: (§1)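 Preemergence soil application of compound, sprayed in aqueous acetone at rates equivalent to about 0.0156 to 0.500 kg per hectare onto freshly sown cups. Plant response was judged by eye on a 0-9 scale four to five weeks later.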

[1] = system: TRZAWR (Wheat, Winter, cv Riband); test: Preemergence herbicidal evaluation; format: in vivo, Triticum aestivum; settings: rated 4-5 weeks after treatment
Procedure, shortened: as §1

ORYSAT (Rice, Tebonnet) [2] = test: Postemergence herbicidal evaluation; format: in vivo, Oryza sativa, (L.) Tebonnet; settings: for herbicidal rating ORYSAT: postemergence
Procedure, shortened: (§2)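 Two-week seedlings sprayed postemergence at 40 psi; formulation: 1:1 acetone/water, 0.5% TWEEN 20; application ≈0.0156–0.500 kg/ha. Greenhouse grow-out, then 0–9 visual scoring at 4–5 weeks.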

ORYSAT (Rice, Tebonnet) [3] = test: Preemergence herbicidal evaluation; format: in vivo, Oryza sativa, (L.) Tebonnet; settings: rated 4-5 weeks after treatment
Procedure, shortened: as §1

[4] = system: GLXMAW (Soybean, Williams); test: Preemergence herbicidal evaluation; format: in vivo, Glycine max, (L.) Merr. cv Williams; settings: rated 4-5 weeks after treatment
Procedure, shortened: as §1

MOOVA (Monochoria) = test: Preemergence weed control under flooded paddy conditions; format: in vivo, Monochoria vaginalis; settings: rated 3-4 weeks after treatment
Procedure, shortened: (§3)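 Flooded-pot preemergence screen with silt loam and seeds in the upper 0.5 cm. Dose about 0.0313 to 0.500 kg/ha, delivered into flood water; visual 0-9 score after 3 to 4 weeks.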

CASOB (Sicklepod) = test: Postemergence herbicidal evaluation; format: in vivo, Cassia obtusifolia; settings: for herbicidal rating CASOB: postemergence
Procedure, shortened: as §2

ZEAMX (Corn, Field) = test: Preemergence herbicidal evaluation; format: in vivo, Zea mays; settings: rated 4-5 weeks after treatment
Procedure, shortened: as §1

ECHCG (Barnyardgrass) = test: Postemergence herbicidal evaluation; format: in vivo, Echinochloa crus-galli; settings: for herbicidal rating ECHCG: postemergence
Procedure, shortened: as §2

SETVI (Foxtail, Green) = test: Preemergence herbicidal evaluation; format: in vivo, Setaria viridis; settings: rated 4-5 weeks after treatment
Procedure, shortened: as §1

[5] = system: SAGPY (Arrowhead (Pygmaea)); test: Preemergence weed control under flooded paddy conditions; format: in vivo, Sagittaria pygmaea; settings: rated 3-4 weeks after treatment
Procedure, shortened: as §3

[6] = system: CHEAL (Lambsquarters, Common); test: Postemergence herbicidal evaluation; format: in vivo, Chenopodium album; settings: for herbicidal rating CHEAL: postemergence
Procedure, shortened: as §2

CCCN1C(=O)CSC1=Nc1cc(-n2c(=O)cc(C(F)(F)F)n(C)c2=O)c(F)cc1Cl [Compound 171, 3-{4-Chloro-2-fluoro-5-[(4-oxo-3-propyl-2-thiazolidinylidene)amino]phenyl}-1-methyl-6-(trifluoromethyl)-2,4 (1H, 3H)-pyrimidinedione]
3.5: Postemergence herbicidal rating ORYSAT (ORYSAT (Rice, Tebonnet) [2]; Rate 0.0156 kg/ha)
0.0: Preemergence herbicidal rating GALAP (GALAP (Galium); 0.0156 kg/ha) | Preemergence herbicidal rating GALAP (GALAP (Galium); 0.0313 kg/ha)
4.0: Postemergence herbicidal rating ORYSAT (ORYSAT (Rice, Tebonnet) [2]; Rate 0.0313 kg/ha) | Preemergence herbicidal rating ORYSAT (ORYSAT (Rice, Tebonnet) [3]; 0.0313 kg/ha) | herbicidal rating CASOB (CASOB (Sicklepod); rate 0.0625 kg/ha) | Postemergence herbicidal rating ECHCG (ECHCG (Barnyardgrass); Rate 0.0156 kg/ha) | Postemergence herbicidal rating ECHCG (ECHCG (Barnyardgrass); Rate 0.0313 kg/ha)
6.0: Preemergence herbicidal rating GALAP (GALAP (Galium); 0.2500 kg/ha) | Preemergence herbicidal rating TRZAWR ([1]; 0.0625 kg/ha) | Preemergence herbicidal rating TRZAWR ([1]; 0.1250 kg/ha) | Preemergence herbicidal rating ORYSAT (ORYSAT (Rice, Tebonnet) [3]; 0.1250 kg/ha) | Preemergence herbicidal rating GLXMAW ([4]; 0.0625 kg/ha) | Preemergence herbicidal rating ZEAMX (ZEAMX (Corn, Field); 0.0313 kg/ha) | herbicidal effect rating, SAGPY ([5]; 0.0313 kg/ha)
9.0: herbicidal effect rating, CYPIR (CYPIR (Rice Flatsedge); 0.0625 kg/ha) | herbicidal effect rating, CYPIR (CYPIR (Rice Flatsedge); 0.1250 kg/ha) | herbicidal effect rating, CYPIR (CYPIR (Rice Flatsedge); 0.2500 kg/ha) | herbicidal effect rating, MOOVA (MOOVA (Monochoria); 0.0313 kg/ha) | herbicidal effect rating, MOOVA (MOOVA (Monochoria); 0.0625 kg/ha) | herbicidal effect rating, MOOVA (MOOVA (Monochoria); 0.1250 kg/ha) | herbicidal effect rating, MOOVA (MOOVA (Monochoria); 0.2500 kg/ha) | Preemergence herbicidal rating ZEAMX (ZEAMX (Corn, Field); 0.2500 kg/ha) | Preemergence herbicidal rating SETVI (SETVI (Foxtail, Green); 0.0313 kg/ha) | Preemergence herbicidal rating SETVI (SETVI (Foxtail, Green); 0.0625 kg/ha) | Preemergence herbicidal rating SETVI (SETVI (Foxtail, Green); 0.1250 kg/ha) | Preemergence herbicidal rating SETVI (SETVI (Foxtail, Green); 0.2500 kg/ha) | herbicidal effect rating, SAGPY ([5]; 0.2500 kg/ha) | Postemergence herbicidal rating CHEAL ([6]; Rate 0.0313 kg/ha) | herbicidal rating CHEAL ([6]; rate 0.0625 kg/ha)
3.0: herbicidal effect rating, CYPIR (CYPIR (Rice Flatsedge); 0.0313 kg/ha) | Preemergence herbicidal rating TRZAWR ([1]; 0.0313 kg/ha) | Postemergence herbicidal rating CASOB (CASOB (Sicklepod); Rate 0.0313 kg/ha) | herbicidal rating ECHCG (ECHCG (Barnyardgrass); rate 0.0625 kg/ha)
7.0: Preemergence herbicidal rating GLXMAW ([4]; 0.1250 kg/ha) | Preemergence herbicidal rating SETVI (SETVI (Foxtail, Green); 0.0156 kg/ha) | herbicidal effect rating, SAGPY ([5]; 0.0625 kg/ha) | Postemergence herbicidal rating CHEAL ([6]; Rate 0.0156 kg/ha)
5.0: Preemergence herbicidal rating GALAP (GALAP (Galium); 0.1250 kg/ha) | herbicidal rating ORYSAT (ORYSAT (Rice, Tebonnet) [2]; rate 0.0625 kg/ha) | Preemergence herbicidal rating ORYSAT (ORYSAT (Rice, Tebonnet) [3]; 0.0625 kg/ha)
1.0: Preemergence herbicidal rating GLXMAW ([4]; 0.0156 kg/ha)
8.0: Preemergence herbicidal rating TRZAWR ([1]; 0.2500 kg/ha) | Preemergence herbicidal rating ORYSAT (ORYSAT (Rice, Tebonnet) [3]; 0.2500 kg/ha) | Preemergence herbicidal rating GLXMAW ([4]; 0.2500 kg/ha) | Preemergence herbicidal rating ZEAMX (ZEAMX (Corn, Field); 0.0625 kg/ha) | Preemergence herbicidal rating ZEAMX (ZEAMX (Corn, Field); 0.1250 kg/ha) | herbicidal effect rating, SAGPY ([5]; 0.1250 kg/ha)
2.0: Preemergence herbicidal rating TRZAWR ([1]; 0.0156 kg/ha) | Preemergence herbicidal rating ORYSAT (ORYSAT (Rice, Tebonnet) [3]; 0.0156 kg/ha) | Preemergence herbicidal rating GLXMAW ([4]; 0.0313 kg/ha) | Postemergence herbicidal rating CASOB (CASOB (Sicklepod); Rate 0.0156 kg/ha) | Preemergence herbicidal rating ZEAMX (ZEAMX (Corn, Field); 0.0156 kg/ha)

C=CCN1C(=O)C(CC(=O)NO)SC1=Nc1cc(-n2c(=O)cc(C(F)(F)F)n(C)c2=O)c(F)cc1Cl (centres unmarked) [Compound 161, 3-Allyl-2-{{2-chloro-5-[3,6-dihydro-3-methyl-2,6-dioxo-4-(trifluoromethyl)-1(2H)-pyrimidinyl]-4-fluorophenyl}imino}-4-oxo-5-thiazolidineacetohydroxamic acid]
6.0: herbicidal effect rating, CYPIR (CYPIR (Rice Flatsedge); 0.2500 kg/ha) | Preemergence herbicidal rating ZEAMX (ZEAMX (Corn, Field); 0.2500 kg/ha) | herbicidal effect rating, SAGPY ([5]; 0.1250 kg/ha)
3.0: herbicidal effect rating, CYPIR (CYPIR (Rice Flatsedge); 0.0313 kg/ha) | Preemergence herbicidal rating GALAP (GALAP (Galium); 0.0625 kg/ha) | herbicidal rating ORYSAT (ORYSAT (Rice, Tebonnet) [2]; rate 0.0313 kg/ha) | herbicidal rating CASOB (CASOB (Sicklepod); rate 0.1250 kg/ha)
9.0: Preemergence herbicidal rating GALAP (GALAP (Galium); 0.5000 kg/ha) | Preemergence herbicidal rating TRZAWR ([1]; 0.5000 kg/ha) | Preemergence herbicidal rating ORYSAT (ORYSAT (Rice, Tebonnet) [3]; 0.2500 kg/ha) | Preemergence herbicidal rating ORYSAT (ORYSAT (Rice, Tebonnet) [3]; 0.5000 kg/ha) | Preemergence herbicidal rating GLXMAW ([4]; 0.2500 kg/ha) | Preemergence herbicidal rating GLXMAW ([4]; 0.5000 kg/ha) | herbicidal effect rating, MOOVA (MOOVA (Monochoria); 0.2500 kg/ha) | Preemergence herbicidal rating ZEAMX (ZEAMX (Corn, Field); 0.5000 kg/ha) | Preemergence herbicidal rating SETVI (SETVI (Foxtail, Green); 0.1250 kg/ha) | Preemergence herbicidal rating SETVI (SETVI (Foxtail, Green); 0.2500 kg/ha) | Preemergence herbicidal rating SETVI (SETVI (Foxtail, Green); 0.5000 kg/ha) | herbicidal effect rating, SAGPY ([5]; 0.2500 kg/ha) | herbicidal rating CHEAL ([6]; rate 0.1250 kg/ha)
5.0: herbicidal effect rating, CYPIR (CYPIR (Rice Flatsedge); 0.1250 kg/ha) | Preemergence herbicidal rating ZEAMX (ZEAMX (Corn, Field); 0.1250 kg/ha) | herbicidal rating CHEAL ([6]; rate 0.0313 kg/ha)
2.0: herbicidal effect rating, SAGPY ([5]; 0.0313 kg/ha)
0.0: Preemergence herbicidal rating GALAP (GALAP (Galium); 0.0156 kg/ha) | Preemergence herbicidal rating GALAP (GALAP (Galium); 0.0313 kg/ha) | Preemergence herbicidal rating TRZAWR ([1]; 0.0156 kg/ha) | Preemergence herbicidal rating TRZAWR ([1]; 0.0313 kg/ha) | Preemergence herbicidal rating ORYSAT (ORYSAT (Rice, Tebonnet) [3]; 0.0156 kg/ha) | Preemergence herbicidal rating GLXMAW ([4]; 0.0156 kg/ha) | herbicidal rating CASOB (CASOB (Sicklepod); rate 0.0156 kg/ha) | Preemergence herbicidal rating ZEAMX (ZEAMX (Corn, Field); 0.0156 kg/ha) | Preemergence herbicidal rating ZEAMX (ZEAMX (Corn, Field); 0.0313 kg/ha) | herbicidal rating ECHCG (ECHCG (Barnyardgrass); rate 0.0156 kg/ha) | herbicidal rating ECHCG (ECHCG (Barnyardgrass); rate 0.0313 kg/ha) | Preemergence herbicidal rating SETVI (SETVI (Foxtail, Green); 0.0156 kg/ha) | Preemergence herbicidal rating SETVI (SETVI (Foxtail, Green); 0.0313 kg/ha)
1.0: Preemergence herbicidal rating TRZAWR ([1]; 0.0625 kg/ha) | Preemergence herbicidal rating ORYSAT (ORYSAT (Rice, Tebonnet) [3]; 0.0313 kg/ha) | Preemergence herbicidal rating GLXMAW ([4]; 0.0313 kg/ha) | Preemergence herbicidal rating GLXMAW ([4]; 0.0625 kg/ha) | herbicidal rating CASOB (CASOB (Sicklepod); rate 0.0313 kg/ha) | herbicidal rating CASOB (CASOB (Sicklepod); rate 0.0625 kg/ha) | Preemergence herbicidal rating ZEAMX (ZEAMX (Corn, Field); 0.0625 kg/ha) | herbicidal rating CHEAL ([6]; rate 0.0156 kg/ha)
3.5: herbicidal rating ORYSAT (ORYSAT (Rice, Tebonnet) [2]; rate 0.0625 kg/ha) | herbicidal rating ORYSAT (ORYSAT (Rice, Tebonnet) [2]; rate 0.1250 kg/ha)
2.5: herbicidal rating ORYSAT (ORYSAT (Rice, Tebonnet) [2]; rate 0.0156 kg/ha)
7.0: Preemergence herbicidal rating GALAP (GALAP (Galium); 0.1250 kg/ha) | Preemergence herbicidal rating GALAP (GALAP (Galium); 0.2500 kg/ha) | Preemergence herbicidal rating TRZAWR ([1]; 0.2500 kg/ha) | Preemergence herbicidal rating ORYSAT (ORYSAT (Rice, Tebonnet) [3]; 0.0625 kg/ha) | Preemergence herbicidal rating ORYSAT (ORYSAT (Rice, Tebonnet) [3]; 0.1250 kg/ha) | Preemergence herbicidal rating GLXMAW ([4]; 0.1250 kg/ha) | herbicidal effect rating, MOOVA (MOOVA (Monochoria); 0.0313 kg/ha) | herbicidal effect rating, MOOVA (MOOVA (Monochoria); 0.0625 kg/ha) | herbicidal effect rating, MOOVA (MOOVA (Monochoria); 0.1250 kg/ha) | Preemergence herbicidal rating SETVI (SETVI (Foxtail, Green); 0.0625 kg/ha) | herbicidal rating CHEAL ([6]; rate 0.0625 kg/ha)
4.0: herbicidal effect rating, CYPIR (CYPIR (Rice Flatsedge); 0.0625 kg/ha) | Preemergence herbicidal rating TRZAWR ([1]; 0.1250 kg/ha) | herbicidal rating ECHCG (ECHCG (Barnyardgrass); rate 0.0625 kg/ha) | herbicidal rating ECHCG (ECHCG (Barnyardgrass); rate 0.1250 kg/ha)
